From ChEMBL document CHEMBL1147641, “Highly potent and long-acting trimeric and tetrameric inhibitors of influenza virus neuraminidase” (Bioorg Med Chem Lett, 2004)
≈ marks a conversion by molar mass, not a printed value.

How the values were obtained:
Influenza A virus = assay: Antiinfluenza activity of compound against Influenza A/Sydney/5/97 in influenza cytopathic effect (CPE) assay; assay type: functional, organism-based
Influenza B virus = assay: Antiinfluenza activity of compound against Influenza B/Harbin/7/95 in influenza cytopathic effect (CPE) assay; assay type: functional, organism-based
Mus musculus [1] = assay: Reduction in virus titre taken from mouse infected with Influenza A/Singapore/1/57 at 0.1 mg/kg dose in 7 day mouse influenza prevention assay; assay type: functional
Mus musculus [2] = assay: Reduction in virus titre taken from mouse infected with Influenza A/Singapore/1/57 at 1.0 mg/kg dose in 7 day mouse influenza prevention assay; assay type: functional
Mus musculus [3] = assay: Reduction in virus titre taken from mouse infected with Influenza A/Singapore/1/57 at 0.4 mg/kg dose in 7 day mouse influenza prevention assay; assay type: functional
Mus musculus [4] = assay: Reduction in virus titre taken from mouse infected with Influenza A/Singapore/1/57 at 1.6 mg/kg dose in 7 day mouse influenza prevention assay; assay type: functional
Mus musculus [5] = assay: Number of virus free mice from total 8 mice infected with Influenza A/Singapore/1/57 after 12.5 mg/kg of intranasal administration for 172 hr prior to viral infection; assay type: functional
Mus musculus [6] = assay: Number of virus free mice from total 9 mice infected with Influenza A/Singapore/1/57 after 12.5 mg/kg of intranasal administration for 145 hr prior to viral infection; assay type: functional
Mus musculus [7] = assay: Number of virus free mice from total 9 mice infected with Influenza A/Singapore/1/57 after 12.5 mg/kg of intranasal administration for 51 hr prior to viral infection; assay type: functional
Mus musculus [8] = assay: Number of virus free mice from total 10 mice infected with Influenza A/Singapore/1/57 after 12.5 mg/kg of intranasal administration for 172 hr prior to viral infection; assay type: functional
Mus musculus [9] = assay: Number of virus free mice from total 10 mice infected with Influenza A/Singapore/1/57 after 12.5 mg/kg of intranasal administration for 117 hr prior to viral infection; assay type: functional
Mus musculus [10] = assay: Reduction in virus titre taken from mouse infected with Influenza A/Singapore/1/57 at 0.01 mg/kg dose in 7 day mouse influenza prevention assay; assay type: functional

Structure (SMILES)	EC50 (Influenza A virus)	EC50 (Influenza B virus)	Effectiveness (Mus musculus [1])	Effectiveness (Mus musculus [2])	Effectiveness (Mus musculus [3])	Effectiveness (Mus musculus [4])	No. of virus free mice (Mus musculus [5])	No. of virus free mice (Mus musculus [6])	No. of virus free mice (Mus musculus [7])	No. of virus free mice (Mus musculus [8])	No. of virus free mice (Mus musculus [9])	Effectiveness (Mus musculus [10])
CC(=O)N[C@H]1[C@H]([C@H](OC(=O)NCCCCCCNC(=O)CC(CC(=O)NCCCCCCNC(=O)O[C@@H]([C@@H]2OC(C(=O)O)=C[C@H](N=C(N)N)[C@H]2NC(C)=O)[C@H](O)CO)C(=O)NCCCCCCNC(=O)O[C@@H]([C@@H]2OC(C(=O)O)=C[C@H](NC(=N)N)[C@H]2NC(C)=O)[C@H](O)CO)[C@H](O)CO)OC(C(=O)O)=C[C@@H]1N=C(N)N	0.4 ng/mL (≈ 0.259 nM)	0.81 ng/mL (≈ 0.524 nM)	68.78%	98.24%	–	–	–	–	–	–	–	–
CC(=O)N[C@H]1[C@H]([C@H](OC(=O)NCCCCCCNC(=O)c2cc(C(=O)NCCCCCCNC(=O)O[C@@H]([C@@H]3OC(C(=O)O)=C[C@H](N=C(N)N)[C@H]3NC(C)=O)[C@H](O)CO)c(C(=O)NCCCCCCNC(=O)O[C@@H]([C@@H]3OC(C(=O)O)=C[C@H](NC(=N)N)[C@H]3NC(C)=O)[C@H](O)CO)cc2C(=O)NCCCCCCNC(=O)O[C@@H]([C@@H]2OC(C(=O)O)=C[C@H](N=C(N)N)[C@H]2NC(C)=O)[C@H](O)CO)[C@H](O)CO)OC(C(=O)O)=C[C@@H]1N=C(N)N	0.53 ng/mL (≈ 0.255 nM)	0.95 ng/mL (≈ 0.457 nM)	74.88%	99.68%	–	–	–	–	–	–	–	–
CC(=O)N[C@H]1[C@H]([C@H](OC(=O)NCCCCCCNC(=O)[C@H]2C[C@@H](C(=O)NCCCCCCNC(=O)O[C@@H]([C@@H]3OC(C(=O)O)=C[C@H](NC(=N)N)[C@H]3NC(C)=O)[C@H](O)CO)C[C@@H](C(=O)NCCCCCCNC(=O)O[C@@H]([C@@H]3OC(C(=O)O)=C[C@H](NC(=N)N)[C@H]3NC(C)=O)[C@H](O)CO)C2)[C@H](O)CO)OC(C(=O)O)=C[C@@H]1NC(=N)N	0.3 ng/mL (≈ 0.189 nM)	0.438 ng/mL (≈ 0.276 nM)	94.38%	98.32%	–	–	–	–	–	–	–	–
CC(=O)N[C@H]1[C@H]([C@H](OC(=O)NCCCCCCNC(=O)CC(O)(CC(=O)NCCCCCCNC(=O)O[C@@H]([C@@H]2OC(C(=O)O)=C[C@H](N=C(N)N)[C@H]2NC(C)=O)[C@H](O)CO)C(=O)NCCCCCCNC(=O)O[C@@H]([C@@H]2OC(C(=O)O)=C[C@H](NC(=N)N)[C@H]2NC(C)=O)[C@H](O)CO)[C@H](O)CO)OC(C(=O)O)=C[C@@H]1N=C(N)N	0.159 ng/mL (≈ 0.102 nM)	2.48 ng/mL (≈ 1.58 nM)	85.88%	99.11%	–	–	–	–	–	–	–	–
CC(=O)N[C@H]1[C@H]([C@H](OC(=O)NCCCCCCN)[C@H](O)CO)OC(C(=O)O)=C[C@@H]1NC(=N)N	438 ng/mL (≈ 923 nM)	213 ng/mL (≈ 449 nM)	–	–	–	–	–	–	–	–	–	–
CC(=O)N[C@H]1[C@H]([C@H](O)[C@H](O)CO)OC(C(=O)O)=C[C@@H]1NC(=N)N [ZANAMIVIR]	32.5 ng/mL (≈ 97.8 nM)	12.2 ng/mL (≈ 36.7 nM)	–	81.76%	0%	97.03%	0	3	3	0	1	–
CC(=O)N[C@H]1[C@H]([C@H](OC(=O)NCCCCCCNC(=O)c2cc(C(=O)NCCCCCCNC(=O)O[C@@H]([C@@H]3OC(C(=O)O)=C[C@H](N=C(N)N)[C@H]3NC(C)=O)[C@H](O)CO)cc(C(=O)NCCCCCCNC(=O)O[C@@H]([C@@H]3OC(C(=O)O)=C[C@H](NC(=N)N)[C@H]3NC(C)=O)[C@H](O)CO)c2)[C@H](O)CO)OC(C(=O)O)=C[C@@H]1N=C(N)N	0.82 ng/mL (≈ 0.519 nM)	1.33 ng/mL (≈ 0.842 nM)	96.24%	–	–	–	–	–	–	–	–	70.15%
CC(=O)N[C@H]1[C@H]([C@H](OC(=O)NCCCCCCNC(=O)CN(CCN(CC(=O)NCCCCCCNC(=O)O[C@@H]([C@@H]2OC(C(=O)O)=C[C@H](N=C(N)N)[C@H]2NC(C)=O)[C@H](O)CO)CC(=O)NCCCCCCNC(=O)O[C@@H]([C@@H]2OC(C(=O)O)=C[C@H](NC(=N)N)[C@H]2NC(C)=O)[C@H](O)CO)CC(=O)NCCCCCCNC(=O)O[C@@H]([C@@H]2OC(C(=O)O)=C[C@H](N=C(N)N)[C@H]2NC(C)=O)[C@H](O)CO)[C@H](O)CO)OC(C(=O)O)=C[C@@H]1N=C(N)N	1.07 ng/mL (≈ 0.505 nM)	2.84 ng/mL (≈ 1.34 nM)	95.53%	–	–	–	–	–	–	–	–	68.38%
